Results reported in the supplement of paper PMC10307832.

Experiments:
Assay in all cases: relative viability (nuclei count vs DMSO), 5 days (fraction); higher = more cells survive
[1] = compound: COc1cc2c(Oc3ccc4[nH]c(C)cc4c3F)ncnc2cc1OCCCN1CCCC1 [Cediranib] + CC(C)C[C@H](NC(=O)[C@H](Cc1ccccc1)NC(=O)c1cnccn1)B(O)O [Bortezomib] (partner 0.002 µM)
Outline: (§1)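 Lung cancer cell lines were pin-tool dosed in 1536-well plates on the day after seeding, with either a lone drug or a fixed anchor-drug dose plus five library-drug doses (not always all listed) in √10 steps. Nuclei were counted on 4× images after 5 days. Relative viability is the ratio of treated-well to vehicle-well nuclei counts, with each value a median of duplicate plates.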

[2] = compound: Nc1ncn([C@H]2C[C@H](O)[C@@H](CO)O2)c(=O)n1 [Decitabine] + Nc1nc2[nH]cc(CCc3ccc(C(=O)N[C@@H](CCC(=O)O)C(=O)O)cc3)c2c(=O)[nH]1 [Pemetrexed] (partner 0.2 µM)
Outline: as §1

[3] = compound: O=C(C[C@H]1NCCC[C@@H]1O)Cn1cnc2cc(Br)c(Cl)cc2c1=O (racemic) [Halofuginone] + CC1(C)CCC(c2ccc(Cl)cc2)=C(CN2CCN(c3ccc(C(=O)NS(=O)(=O)c4ccc(N[C@H](CCN5CCOCC5)CSc5ccccc5)c(S(=O)(=O)C(F)(F)F)c4)cc3)CC2)C1 [Navitoclax] (partner 0.5 µM)
Outline: as §1

[4] = compound: Nc1ncn([C@H]2C[C@H](O)[C@@H](CO)O2)c(=O)n1 [Decitabine] + CS(=O)(=O)CCNCc1ccc(-c2ccc3ncnc(Nc4ccc(OCc5cccc(F)c5)c(Cl)c4)c3c2)o1 [Lapatinib] (partner 2 µM)
Outline: as §1

Row | Cell Line | relative viability ([1]; first compound 0.04 µM) | relative viability ([1]; first compound 0.4 µM) | relative viability ([1]; first compound 1.265 µM) | relative viability ([1]; first compound 4 µM) | relative viability ([2]; first compound 0.04 µM) | relative viability ([2]; first compound 0.1265 µM) | relative viability ([2]; first compound 0.4 µM) | relative viability ([2]; first compound 1.265 µM) | relative viability ([2]; first compound 4 µM) | relative viability ([3]; first compound 0.001 µM) | relative viability ([3]; first compound 0.003162 µM) | relative viability ([3]; first compound 0.01 µM) | relative viability ([3]; first compound 0.03162 µM) | relative viability ([3]; first compound 0.1 µM) | relative viability ([1]; first compound 0.1265 µM) | relative viability ([4]; first compound 0.04 µM) | relative viability ([4]; first compound 0.1265 µM) | relative viability ([4]; first compound 0.4 µM) | relative viability ([4]; first compound 1.265 µM) | relative viability ([4]; first compound 4 µM)
1 | ChaGo-K-1 | 1.03 | 0.994 | 1.04 | 0.861 | 0.27 | 0.261 | 0.253 | 0.251 | 0.269 | 0.88 | 0.587 | 1.01 | 0.859 | 0.975 |  |  |  |  |  | 
2 | EBC-1 | 0.702 | 0.528 | 0.687 | 0.687 |  |  |  |  |  | 0.535 | 0.35 | 0.274 | 0.244 | 0.109 | 0.628 | 0.2 | 0.163 | 0.162 | 0.195 | 0.152
3 | EKVX | 1.12 | 0.975 | 0.939 | 0.865 | 0.281 | 0.369 | 0.255 | 0.205 | 0.194 | 1.06 | 0.971 | 0.984 | 0.905 | 0.797 | 0.892 | 0.211 | 0.2 | 0.213 | 0.184 | 0.163
4 | EMC-BAC-2 | 1.06 | 1.03 | 1.02 | 1.07 |  | 0.407 | 0.412 | 0.36 | 0.354 | 1.14 | 1.29 | 1.14 | 1.13 | 0.87 | 0.69 | 0.926 | 0.989 | 0.556 | 0.67 | 0.586
5 | EPLC-272H | 0.997 | 0.923 | 0.794 | 0.949 | 0.346 | 0.256 |  | 0.339 | 0.27 | 1.14 | 1.22 | 0.945 | 1.21 | 1.17 |  | 0.749 | 0.777 |  | 0.543 | 0.518
6 | H3255 | 0.808 | 0.776 | 0.731 | 0.814 | 0.453 | 0.547 | 0.446 | 0.486 | 0.453 | 0.541 | 0.481 | 0.548 | 0.495 | 0.553 | 0.842 | 0.226 | 0.193 | 0.201 | 0.164 | 0.205
7 | HARA | 1.18 | 1.11 | 1.14 | 1.07 | 0.2 | 0.247 | 0.209 | 0.202 | 0.211 | 1.14 | 1.11 | 1.14 | 1.12 | 1.14 | 1.01 | 0.737 | 0.935 | 0.443 | 0.432 | 0.296
8 | HCC-15 | 1.06 | 1 | 1.12 | 1.01 | 0.2 | 0.207 | 0.179 | 0.19 | 0.191 | 0.704 | 0.732 | 0.686 | 0.651 | 0.593 |  | 0.634 | 0.778 | 0.223 | 0.345 | 0.366
9 | HCC-44 | 0.825 | 0.873 | 0.932 | 0.975 | 0.638 | 0.632 | 0.547 | 0.595 | 0.548 | 0.949 | 1.02 | 0.968 | 1.02 | 0.568 |  | 0.84 | 1 | 0.298 | 0.661 | 0.51
